Measurements taken from ChEMBL document CHEMBL1201862, “PubChem BioAssay data set” (2004).
The source made the active and inactive calls.

Key:
HeLa = test: HeLa cell cytotoxicity, dose response, cytotoxicity control for MITF activator project, CellTiter-Glo luminescence, cherry-pick samples (AID 540259); format: functional, cell-based; details: Homo sapiens
[1] = inhibitors of firefly luciferase expression or activity, dose response, H4 neuroglioma cells, luminescence (AID 1990); format: functional, cell-based
BJ [2] = test: cytotoxicity toward BJ-TERT fibroblasts, dose response, cell-based, RAS-independent, luminescence (AID 1933); format: functional; details: Homo sapiens
[3] = Luminescence Cell-Based Dose Response HTS to Identify Inhibitors of 5'UTR Stem-Loop Driven Prion Protein mRNA Translation in H4 Neuroglioblastoma Cells. [Related pubchem assays: 1827 (Project Summary), 1813 (Primary HTS)]; format: functional
BJ [4] = test: cells; format: functional, cell-based; details: Homo sapiens
BJ [5] = test: cytotoxicity toward BJ-TERT-LT-ST fibroblasts, dose response, cell-based, RAS-independent, luminescence (AID 1935); format: functional; details: Homo sapiens;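 note: BJ fibroblasts immortalized with TERT plus LT and ST oncogenes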
[6] = cytotoxicity toward DRD oncogenic fibroblasts, dose response, cell-based, non-viral oncogenic, luminescence (AID 1934); format: functional; details: Homo sapiens
Vero [7] = test: cells; format: functional, cell-based; details: Chlorocebus sabaeus
Vero [8] = test: cells; format: functional; details: Chlorocebus sabaeus
[9] = HEp-2 cell cytotoxicity, dose response, cytotoxicity control for RSV inhibitor project, HTS (AID 2410); format: functional; details: human respiratory syncytial virus
[10] = target: T1, Voltage-gated N-type calcium channel alpha-1B subunit/Amyloid beta A4 precursor protein-binding family A member 1 (Homo sapiens, UniProt Q00975+Q02410); format: protein assay
T1 sequence (Q00975 whole entry): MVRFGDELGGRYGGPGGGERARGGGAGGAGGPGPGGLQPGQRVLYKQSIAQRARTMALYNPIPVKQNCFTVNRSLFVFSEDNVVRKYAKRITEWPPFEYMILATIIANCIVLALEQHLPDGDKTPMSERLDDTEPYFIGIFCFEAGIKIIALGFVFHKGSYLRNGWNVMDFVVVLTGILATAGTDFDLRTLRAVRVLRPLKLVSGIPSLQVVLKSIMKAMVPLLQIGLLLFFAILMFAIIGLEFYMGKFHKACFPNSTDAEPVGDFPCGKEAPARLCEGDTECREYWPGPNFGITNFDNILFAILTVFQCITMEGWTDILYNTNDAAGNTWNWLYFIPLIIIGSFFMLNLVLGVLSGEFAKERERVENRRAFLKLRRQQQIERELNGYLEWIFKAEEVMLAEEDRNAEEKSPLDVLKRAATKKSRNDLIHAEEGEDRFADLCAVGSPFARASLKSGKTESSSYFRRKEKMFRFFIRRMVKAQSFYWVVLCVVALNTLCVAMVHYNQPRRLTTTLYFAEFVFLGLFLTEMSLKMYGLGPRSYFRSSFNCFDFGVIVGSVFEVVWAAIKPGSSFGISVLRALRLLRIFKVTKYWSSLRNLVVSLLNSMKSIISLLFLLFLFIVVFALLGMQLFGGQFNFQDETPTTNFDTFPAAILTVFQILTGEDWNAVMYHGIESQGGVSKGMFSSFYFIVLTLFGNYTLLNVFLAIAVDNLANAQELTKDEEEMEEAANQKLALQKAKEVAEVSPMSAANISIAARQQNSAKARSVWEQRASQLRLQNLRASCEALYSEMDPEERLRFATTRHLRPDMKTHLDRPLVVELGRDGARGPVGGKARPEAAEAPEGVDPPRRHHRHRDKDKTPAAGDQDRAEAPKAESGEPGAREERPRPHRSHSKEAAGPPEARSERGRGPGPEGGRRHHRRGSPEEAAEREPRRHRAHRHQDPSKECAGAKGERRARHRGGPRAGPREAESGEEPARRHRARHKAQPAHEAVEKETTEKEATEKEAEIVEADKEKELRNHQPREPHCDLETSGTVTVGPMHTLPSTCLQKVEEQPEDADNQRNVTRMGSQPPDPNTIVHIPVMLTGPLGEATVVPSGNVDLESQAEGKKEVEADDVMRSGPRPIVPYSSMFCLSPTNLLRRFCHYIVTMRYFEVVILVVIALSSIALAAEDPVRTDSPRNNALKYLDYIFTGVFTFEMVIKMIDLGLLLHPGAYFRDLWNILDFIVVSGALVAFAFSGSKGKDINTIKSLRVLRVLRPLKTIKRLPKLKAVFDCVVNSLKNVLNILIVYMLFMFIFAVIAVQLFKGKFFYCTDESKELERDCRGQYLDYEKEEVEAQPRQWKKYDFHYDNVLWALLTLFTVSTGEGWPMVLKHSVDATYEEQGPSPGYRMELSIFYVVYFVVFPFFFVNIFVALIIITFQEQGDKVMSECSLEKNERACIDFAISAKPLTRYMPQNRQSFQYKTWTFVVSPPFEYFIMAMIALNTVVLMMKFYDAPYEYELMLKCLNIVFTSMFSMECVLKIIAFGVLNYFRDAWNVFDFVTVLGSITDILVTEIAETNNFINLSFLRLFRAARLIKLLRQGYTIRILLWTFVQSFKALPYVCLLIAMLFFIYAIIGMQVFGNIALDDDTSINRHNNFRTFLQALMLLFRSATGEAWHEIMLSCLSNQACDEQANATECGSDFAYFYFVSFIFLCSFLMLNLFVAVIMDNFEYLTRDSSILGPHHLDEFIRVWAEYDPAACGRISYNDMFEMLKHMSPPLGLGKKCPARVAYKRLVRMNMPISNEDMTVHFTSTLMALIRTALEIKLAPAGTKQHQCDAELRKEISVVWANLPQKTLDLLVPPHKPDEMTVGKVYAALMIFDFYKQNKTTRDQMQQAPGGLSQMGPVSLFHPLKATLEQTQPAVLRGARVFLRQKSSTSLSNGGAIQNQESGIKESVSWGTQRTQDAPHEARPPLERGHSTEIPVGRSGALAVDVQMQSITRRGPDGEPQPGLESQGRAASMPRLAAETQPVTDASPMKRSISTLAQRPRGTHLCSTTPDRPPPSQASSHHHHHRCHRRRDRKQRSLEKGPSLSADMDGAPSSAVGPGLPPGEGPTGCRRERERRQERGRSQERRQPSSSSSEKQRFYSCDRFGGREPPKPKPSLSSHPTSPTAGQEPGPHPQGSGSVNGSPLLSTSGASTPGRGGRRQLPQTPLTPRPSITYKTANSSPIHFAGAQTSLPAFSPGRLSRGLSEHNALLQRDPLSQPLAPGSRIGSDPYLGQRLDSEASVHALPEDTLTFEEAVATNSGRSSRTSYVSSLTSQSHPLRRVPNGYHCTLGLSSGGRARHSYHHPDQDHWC
T1 sequence (Q02410 whole entry): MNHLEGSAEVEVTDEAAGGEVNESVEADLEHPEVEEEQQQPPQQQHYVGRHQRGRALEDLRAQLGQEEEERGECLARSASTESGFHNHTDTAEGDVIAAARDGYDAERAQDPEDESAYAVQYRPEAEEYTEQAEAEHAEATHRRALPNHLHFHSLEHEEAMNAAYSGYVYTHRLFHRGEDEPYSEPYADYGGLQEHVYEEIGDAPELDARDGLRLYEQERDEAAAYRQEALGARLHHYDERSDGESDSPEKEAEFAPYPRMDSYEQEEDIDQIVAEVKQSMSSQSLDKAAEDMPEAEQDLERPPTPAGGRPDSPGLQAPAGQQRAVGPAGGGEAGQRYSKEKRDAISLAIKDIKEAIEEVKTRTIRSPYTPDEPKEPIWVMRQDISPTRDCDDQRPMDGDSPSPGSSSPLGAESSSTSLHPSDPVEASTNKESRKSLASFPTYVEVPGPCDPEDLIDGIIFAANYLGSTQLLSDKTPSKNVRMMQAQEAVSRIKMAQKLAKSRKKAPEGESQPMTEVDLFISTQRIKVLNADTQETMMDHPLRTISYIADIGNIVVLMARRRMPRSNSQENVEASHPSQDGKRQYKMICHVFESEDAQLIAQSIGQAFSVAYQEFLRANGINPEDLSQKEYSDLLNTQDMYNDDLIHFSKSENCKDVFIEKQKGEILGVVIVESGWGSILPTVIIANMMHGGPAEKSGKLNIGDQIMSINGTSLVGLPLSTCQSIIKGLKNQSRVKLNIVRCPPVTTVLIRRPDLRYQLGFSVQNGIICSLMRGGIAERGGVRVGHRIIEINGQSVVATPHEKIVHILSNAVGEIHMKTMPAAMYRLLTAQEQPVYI

[11] = target: Luciferin 4-monooxygenase (Photinus pyralis, UniProt P08659); test: firefly luciferase enzyme inhibitors, dose response, biochemical, luminescence (AID 1891)
Chain of Luciferin 4-monooxygenase (P08659 whole entry): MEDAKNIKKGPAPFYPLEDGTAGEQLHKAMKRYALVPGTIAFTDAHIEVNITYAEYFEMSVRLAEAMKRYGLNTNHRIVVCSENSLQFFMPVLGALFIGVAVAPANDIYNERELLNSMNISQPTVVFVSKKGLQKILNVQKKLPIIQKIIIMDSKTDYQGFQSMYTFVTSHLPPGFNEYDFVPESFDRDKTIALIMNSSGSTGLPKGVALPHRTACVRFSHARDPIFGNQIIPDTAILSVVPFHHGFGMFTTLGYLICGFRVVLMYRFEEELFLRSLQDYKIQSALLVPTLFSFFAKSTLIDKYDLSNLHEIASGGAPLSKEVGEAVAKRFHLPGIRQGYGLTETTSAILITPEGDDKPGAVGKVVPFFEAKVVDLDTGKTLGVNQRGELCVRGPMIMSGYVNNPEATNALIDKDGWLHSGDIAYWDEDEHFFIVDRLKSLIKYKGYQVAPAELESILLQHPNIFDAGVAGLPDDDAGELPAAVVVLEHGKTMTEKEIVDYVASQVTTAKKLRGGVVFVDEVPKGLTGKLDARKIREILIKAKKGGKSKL

[12] = Luminescence Cell-Based Dose Confirmation HTS to Identify Inhibitors of Platelet Dense Granule Release. [Related pubchem assays: 1663 (Primary HTS), 1678 (Summary of Project)]; format: functional
[13] = target: T1, Voltage-gated N-type calcium channel alpha-1B subunit/Amyloid beta A4 precursor protein-binding family A member 1; format: protein assay; remark: listed apart in the source
[14] = growth suppression of PTEN-null colon cells, dose response, cell-based, HCT116 PTEN knockout (AID 1047); format: functional;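 note: HCT116 colon tumor cells with PTEN knocked out; cells exposed to compound for 60 hours before readout; potency for loss of cell viability measured by luminescence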
[15] = growth suppression of beta-catenin-knockout colon cells, dose response, cell-based, HCT116, human colon tumor (AID 1045); format: functional;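 note: HCT116 colon tumor cells with beta catenin knocked out; cells exposed to compound for 60 hours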
[16] = target: Heat shock protein HSP 90-alpha (Homo sapiens, UniProt P07900); format: functional, organism-based
[17] = Shn3 3'UTR reporter inhibitors, dose response, cell-based, Clone20 osteoblasts, firefly luciferase, cherry-picked (AID 624132); format: functional;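 note: firefly luciferase luminescence from reporter carrying the Shn3 3'UTR in osteoblasts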
[18] = HepG2 cell cytotoxicity, dose response, cytotoxicity control for Shn3 inhibitor project, CellTiter-Glo, cherry-picked (AID 624134); format: functional, cell-based
[19] = control 3'UTR Renilla luciferase suppression, dose response, counter-screen for Shn3 inhibitor project, cell-based, Clone20-Shn3RL, cherry-picked (AID 624133); format: functional
HEK293 [20] = test: cells; details: Homo sapiens
HEK293 [21] = test: cells; details: Homo sapiens; remark: listed apart in the source
[22] = target: T2, Short transient receptor potential channel 4 (Mus musculus, UniProt Q9QUQ5); test: mouse TRPC4 channel inhibitors, dose response, cell-based, HEK293 TRPC4/mu-opioid, Fluo-4 calcium (AID 434942); format: functional;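 note: potency of inhibitors blocking the TRPC4 calcium response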
T2 sequence (Q9QUQ5 whole entry): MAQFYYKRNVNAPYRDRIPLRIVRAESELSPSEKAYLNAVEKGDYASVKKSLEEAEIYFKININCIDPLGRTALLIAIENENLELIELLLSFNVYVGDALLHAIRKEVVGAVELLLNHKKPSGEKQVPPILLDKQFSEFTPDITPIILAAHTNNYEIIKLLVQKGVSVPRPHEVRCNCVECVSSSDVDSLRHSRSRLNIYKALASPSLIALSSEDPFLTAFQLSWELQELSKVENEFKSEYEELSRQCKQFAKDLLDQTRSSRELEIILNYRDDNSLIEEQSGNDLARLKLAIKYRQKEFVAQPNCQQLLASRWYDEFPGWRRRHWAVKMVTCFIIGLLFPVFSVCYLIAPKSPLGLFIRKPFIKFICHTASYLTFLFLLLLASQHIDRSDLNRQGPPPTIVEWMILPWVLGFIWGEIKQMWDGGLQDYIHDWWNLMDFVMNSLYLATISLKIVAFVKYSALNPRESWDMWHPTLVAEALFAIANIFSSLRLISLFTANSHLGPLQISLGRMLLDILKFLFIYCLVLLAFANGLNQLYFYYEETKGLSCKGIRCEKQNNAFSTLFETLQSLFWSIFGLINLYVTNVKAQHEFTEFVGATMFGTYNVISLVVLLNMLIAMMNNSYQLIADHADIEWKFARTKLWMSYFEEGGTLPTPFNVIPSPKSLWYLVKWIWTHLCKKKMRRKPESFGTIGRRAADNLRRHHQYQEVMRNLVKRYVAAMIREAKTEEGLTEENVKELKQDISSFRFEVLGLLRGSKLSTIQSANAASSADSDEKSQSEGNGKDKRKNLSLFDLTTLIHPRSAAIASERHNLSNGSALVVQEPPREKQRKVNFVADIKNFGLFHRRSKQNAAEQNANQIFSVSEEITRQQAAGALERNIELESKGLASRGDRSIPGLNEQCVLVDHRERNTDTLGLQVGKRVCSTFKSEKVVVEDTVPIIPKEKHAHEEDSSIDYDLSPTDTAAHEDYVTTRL

[23] = Luminescence Cell-Based Dose Retest to Confirm Inhibitors of Cancer Stem Cells. [Related pubchem assays (depositor defined):AID2717, AID2721]; format: functional; details: Homo sapiens
[24] = target: T3, 1-acylglycerol-3-phosphate O-acyltransferase ABHD5/Perilipin-5 (Homo sapiens, UniProt Q00G26+Q8WTS1); test: Luminescence-based biochemical high throughput dose response assay for inhibitors of the interaction of the lipase co-activator protein, abhydrolase domain containing 5 (ABHD5) with perilipin-5 (MLDP; PLIN5) (2K validation set). [Related pubchem assays (depositor defined):AID493035, AID493241]
T3 sequence (Q00G26 whole entry): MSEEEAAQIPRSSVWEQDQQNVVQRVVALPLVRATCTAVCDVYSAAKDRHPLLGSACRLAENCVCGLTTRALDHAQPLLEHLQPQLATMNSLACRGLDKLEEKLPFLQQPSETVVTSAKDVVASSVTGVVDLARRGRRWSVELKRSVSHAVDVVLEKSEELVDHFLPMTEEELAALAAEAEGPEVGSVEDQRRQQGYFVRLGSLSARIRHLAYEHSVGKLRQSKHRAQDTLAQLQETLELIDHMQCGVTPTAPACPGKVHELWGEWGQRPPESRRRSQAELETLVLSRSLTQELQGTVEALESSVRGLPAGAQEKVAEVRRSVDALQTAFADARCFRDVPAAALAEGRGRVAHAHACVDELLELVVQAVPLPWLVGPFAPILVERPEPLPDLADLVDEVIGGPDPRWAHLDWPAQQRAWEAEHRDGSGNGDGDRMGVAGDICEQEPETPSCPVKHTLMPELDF
T3 sequence (Q8WTS1 whole entry): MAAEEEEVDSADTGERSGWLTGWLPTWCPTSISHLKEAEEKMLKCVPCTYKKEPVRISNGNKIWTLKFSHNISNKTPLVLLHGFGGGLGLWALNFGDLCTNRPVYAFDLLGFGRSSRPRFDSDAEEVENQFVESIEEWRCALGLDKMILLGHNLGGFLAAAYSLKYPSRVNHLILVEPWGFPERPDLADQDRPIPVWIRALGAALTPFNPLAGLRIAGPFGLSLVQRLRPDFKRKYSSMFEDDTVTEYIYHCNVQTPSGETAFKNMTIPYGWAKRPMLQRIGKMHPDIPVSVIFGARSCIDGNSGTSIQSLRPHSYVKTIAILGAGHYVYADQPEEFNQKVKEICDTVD

Perilipin-1/ABHD5 = target: T4, Perilipin-1/ABHD5 (Homo sapiens, UniProt O60240+Q8WTS1); test: Luminescence-based biochemical high throughput dose response assay for inhibitors of the interaction of the lipase co-activator protein, abhydrolase domain containing 5 (ABHD5) with perilipin-1 (PLIN1) (2K validation set). [Related pubchem assays (depositor defined):AID493027, AID493057]
T4 sequence (Q8WTS1 whole entry): T3 sequence (Q8WTS1 whole entry)
T4 sequence (O60240 whole entry): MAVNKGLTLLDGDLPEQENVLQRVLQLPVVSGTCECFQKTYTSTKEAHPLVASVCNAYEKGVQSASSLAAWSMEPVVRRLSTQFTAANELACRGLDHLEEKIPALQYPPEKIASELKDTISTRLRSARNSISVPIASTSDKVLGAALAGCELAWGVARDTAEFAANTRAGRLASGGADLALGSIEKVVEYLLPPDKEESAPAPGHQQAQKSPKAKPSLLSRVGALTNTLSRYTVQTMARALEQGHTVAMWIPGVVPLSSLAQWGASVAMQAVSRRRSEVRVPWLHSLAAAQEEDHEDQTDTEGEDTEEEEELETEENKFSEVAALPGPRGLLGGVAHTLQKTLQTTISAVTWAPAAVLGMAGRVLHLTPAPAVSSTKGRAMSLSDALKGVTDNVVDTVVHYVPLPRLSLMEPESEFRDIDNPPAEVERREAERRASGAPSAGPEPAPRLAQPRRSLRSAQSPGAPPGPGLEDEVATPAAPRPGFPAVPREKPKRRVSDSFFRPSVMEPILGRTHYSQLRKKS

Protein skinhead-1 = target: T5, Protein skinhead-1 (Caenorhabditis elegans, UniProt P34707); format: functional
T5 sequence (P34707 whole entry): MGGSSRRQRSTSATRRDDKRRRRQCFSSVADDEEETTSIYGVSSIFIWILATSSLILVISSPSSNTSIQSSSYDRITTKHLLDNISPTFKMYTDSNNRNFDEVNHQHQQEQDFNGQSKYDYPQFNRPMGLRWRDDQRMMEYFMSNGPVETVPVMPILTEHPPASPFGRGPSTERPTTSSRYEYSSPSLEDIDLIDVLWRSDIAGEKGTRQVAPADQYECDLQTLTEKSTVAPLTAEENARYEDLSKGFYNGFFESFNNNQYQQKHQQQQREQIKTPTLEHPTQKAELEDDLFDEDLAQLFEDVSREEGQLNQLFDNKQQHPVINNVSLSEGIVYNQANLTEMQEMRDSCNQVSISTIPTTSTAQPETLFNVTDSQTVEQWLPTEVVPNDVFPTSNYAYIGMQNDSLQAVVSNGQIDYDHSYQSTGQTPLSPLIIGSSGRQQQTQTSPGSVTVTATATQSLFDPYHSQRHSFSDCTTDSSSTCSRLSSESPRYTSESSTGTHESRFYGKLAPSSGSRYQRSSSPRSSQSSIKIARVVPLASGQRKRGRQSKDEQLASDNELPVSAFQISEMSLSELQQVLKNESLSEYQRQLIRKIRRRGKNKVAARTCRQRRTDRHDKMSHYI

Question: With `Cc1ccc(Nc2ncnc3ccccc23)cc1` as the molecule, how does the AC50 (HeLa) read?
Answer: 154 µM (active)

Question: Which results are given for `CC(C)c1ccc(NC(=O)[C@H](Cc2c[nH]c3ccccc23)NC(=O)[C@@H]2Cc3ccccc3CN2)cc1`?
Answer: EC50 [1]: > 120 µM (not active); EC50 (BJ [2]): > 150 µM (not active); EC50 [3]: 20.1 µM (active); EC50 (BJ [4]): 70.9 µM (active); EC50 (BJ [5]): > 150 µM (not active); EC50 [6]: 119 µM (active); IC50 (Vero [7]): 5.06 µM (active); CC50 (Vero [8]): 23.5 µM (active)

Question: What does the source list for `Cc1ccc(NN2C(=O)C=C(c3ccc(Cl)cc3)C2=O)cc1`?
Answer: CC50 [9]: 10.8 µM (active); IC50 [10]: 11 µM (active); EC50 [11]: > 112 µM (not active); EC50 [12]: 9.18 µM (active); IC50 [13]: > 50 µM (inactive); EC50 [14]: 19.9 µM (active); EC50 [15]: 24.1 µM (active); AC50 [16]: < 0.195 µM (active); AC50 [17]: 6.53 µM (active); AC50 [18]: 19.8 µM (active); AC50 [19]: 12.6 µM (active); EC50 (HEK293 [20]): > 59.6 µM (inactive); EC50 (HEK293 [21]): > 59.6 µM (inactive)

Question: Which AC50 (HeLa) does the source give for `Cn1cccc1C(=O)C(=O)Nc1ccc(F)c(F)c1` here?
Answer: 72.6 µM (active)

Question: Which results are given for `COCCn1c(SCC(=O)Nc2ccccc2OC)nc2c3ccccc3nc-2c1O`?
Answer: EC50 [22]: 3.76 µM (active); EC50 (HEK293 [20]): > 59.6 µM (inactive); EC50 (HEK293 [21]): > 59.6 µM (inactive)

Question: Which EC50 [14] does the source give for `O=C(/C=C/c1ccccc1)/C=C/c1ccccc1` here?
Answer: 1.22 µM (active)

Question: And the EC50 [15]?
Answer: 0.953 µM (active)

Question: What about the AC50 [23] of the same molecule?
Answer: 1.42 µM (active)

Question: And the IC50 [24]?
Answer: 1.48 µM (active)

Question: What about the IC50 (Perilipin-1/ABHD5) of the same molecule?
Answer: 1.52 µM (active)

Question: And the IC50 (Vero [7])?
Answer: > 25 µM (active)

Question: And the CC50 (Vero [8])?
Answer: 19.1 µM (active)

Question: And the IC50 (Protein skinhead-1)?
Answer: 11.6 µM (active)
